Legend:
PD-1/PD-L1 = PD-1/PD-L1 (Homo sapiens (Human), UniProt Q9NZQ7); test: PD-1/PD-L1 biochemical protein-protein interaction assay (ALPHA); assay type: binding; conditions: 0.3 nM His tagged PD-L1, 2.5 nM biotinylated Fc-PD-1, Table 3B, read-out: IC50 PD-L1-PD1
PD-L1 = PD-L1 (Homo sapiens (Human), UniProt Q9NZQ7); test: PD-L1/PD-L1 dimerization biochemical protein-protein interaction assay (ALPHA); assay type: binding; conditions: 0.5 nM His tagged PD-L1 and 0.5 nM FLAG tagged PD-L1, Table 4B, read-out: AC50 PDL1 Dimer 1 nM
Chain of PD-L1 (Q9NZQ7 19-238): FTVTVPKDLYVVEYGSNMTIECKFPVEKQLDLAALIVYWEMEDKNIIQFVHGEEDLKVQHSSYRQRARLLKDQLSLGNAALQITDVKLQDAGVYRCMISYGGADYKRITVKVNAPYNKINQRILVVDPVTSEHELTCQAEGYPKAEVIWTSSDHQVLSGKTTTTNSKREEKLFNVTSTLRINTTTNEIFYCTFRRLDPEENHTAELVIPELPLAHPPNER
Chain of PD-L1 (Q9NZQ7 19-238): as above

Chain of PD-1/PD-L1 (Q9NZQ7 19-238): as above

Structure (SMILES) | IC50 (PD-1/PD-L1) | AC50 (PD-L1)
CNC(=O)CCNCc1cc(Cl)c(O[C@H]2CCc3c(-c4cccc(-c5ccc(CNC[C@@H]6CCC(=O)N6)c(OC)n5)c4Cl)cccc32)nc1OC [B-90] | 111 pM | 18700 pM
COc1nc(O[C@H]2CCc3c(-c4cccc(-c5cnc([C@H](C)NC[C@@H]6CCC(=O)N6)c(OC)n5)c4Cl)cccc32)c(Cl)cc1CN1CC[C@@H](C(=O)O)C1 [B-91] | 64 pM | 33800 pM
COc1nc(-c2cccc(-c3cccc4c3CC[C@@H]4Oc3nc(OC)c(CN4C[C@@H]5CCC[C@]5(C(=O)O)C4)cc3Cl)c2Cl)ccc1CNC[C@@H]1CCC(=O)N1 [B-92] | 64 pM | 54500 pM
COc1nc(-c2cccc(-c3cccc4c3CC[C@@H]4Oc3nc(OC)c(CN4C[C@@H]5CC[C@]5(C(=O)O)C4)cc3Cl)c2Cl)ccc1CNC[C@@H]1CCC(=O)N1 [B-93] | 64 pM | 55000 pM
COC(=O)[C@H]1[C@@H]2CN(Cc3cc(Cl)c(O[C@H]4CCc5c(-c6cccc(-c7ccc(CNC[C@@H]8CCC(=O)N8)c(OC)n7)c6Cl)cccc54)nc3OC)C[C@@H]21 [B-94] | 68 pM | 103000 pM
COc1nc(-c2cccc(-c3cccc4c3CC[C@@H]4Oc3nc(OC)c(CN4C[C@@H]5C[C@]5(C(=O)O)C4)cc3Cl)c2Cl)ccc1CNC[C@@H]1CCC(=O)N1 [B-95] | 64 pM | 36200 pM
COc1nc(O[C@H]2CCc3c(-c4cccc(-c5cnc(CNC[C@@H]6CCC(=O)N6)cn5)c4Cl)cccc32)c(Cl)cc1CN1CC(C(=O)O)C1 [B-96] | 64 pM | 48700 pM
COc1nc(O[C@H]2CCc3c(-c4cccc(-c5cnc(CNC[C@@H]6CCC(=O)N6)cn5)c4Cl)cccc32)c(Cl)cc1CN1CC[C@@H](C(=O)O)C1 [B-97] | 64 pM | 66400 pM
COc1nc(-c2cccc(-c3cccc4c3CC[C@@H]4Oc3nc(OC)c(CN4CC5CCC4C(C(=O)O)C5)cc3Cl)c2Cl)ccc1CNC[C@@H]1CCC(=O)N1 (some centres unmarked) [B-98] | 111 pM | 54300 pM
COc1nc(-c2cccc(-c3cccc4c3CC[C@@H]4Oc3nc(OC)c(CN4CC5CC5(C(=O)O)C4)cc3Cl)c2Cl)ccc1CNC[C@@H]1CCC(=O)N1 (some centres unmarked) [B-99] | 86 pM | 67900 pM
CNC(=O)C1CN(Cc2cc(Cl)c(O[C@H]3CCc4c(-c5cccc(-c6ccc(CNC[C@@H]7CCC(=O)N7)c(OC)n6)c5Cl)cccc43)nc2OC)C1 [B-101] | 201 pM | 64800 pM
COc1nc(-c2cccc(-c3cccc4c3CC[C@@H]4Oc3nc(OC)c(CN4CC(C)(O)C4)cc3Cl)c2Cl)ccc1CNC[C@@H]1CCC(=O)N1 [B-102] | 146 pM | 80600 pM
COc1nc(-c2cccc(-c3cccc4c3SC[C@@H]4Oc3nc(OC)c(CNC[C@@H]4CCC(=O)N4)cc3Cl)c2Cl)ccc1CNC[C@@H]1CCC(=O)N1 [B-103] | 234 pM | 58500 pM
COc1nc(-c2cccc(-c3cccc4c3CC[C@@H]4Oc3nc(OC)c(CN4C[C@H](C(=O)O)[C@@H](C)C4)cc3Cl)c2Cl)ccc1CNC[C@@H]1CCC(=O)N1 [B-106] | 64 pM | 41300 pM
COc1nc(-c2cccc(-c3cccc4c3CC[C@@H]4Oc3nc(OC)c(CN4C[C@@H](C)[C@H](C(=O)O)C4)cc3Cl)c2Cl)ccc1CNC[C@@H]1CCC(=O)N1 [B-107] | 64 pM | 20100 pM
COc1nc(-c2cccc(-c3cccc4c3CC[C@@H]4Oc3nc(OC)c(CN4CC[C@H](C(=O)O)C4)cc3Cl)c2Cl)ccc1CNC[C@@H]1CCC(=O)N1 [B-114] | 64 pM | 20700 pM
COc1nc(-c2cccc(-c3cccc4c3CC[C@@H]4Oc3nc(OC)c(CN4CCC(C(=O)O)CC4)cc3Cl)c2Cl)ccc1CNC[C@@H]1CCC(=O)N1 [B-115] | 64 pM | 26300 pM
COc1nc(O[C@H]2CCc3c(-c4cccc(-c5ccc(CNC[C@@H]6CCC(=O)N6)c(Cl)c5)c4Cl)cccc32)c(Cl)cc1CNC1(C(=O)O)CC1 [B-116] | 64 pM | 35500 pM
COc1cc(-c2cccc(-c3cccc4c3CC[C@@H]4Oc3nc(OC)c(CN4CC[C@@H]5C[C@@]54C(=O)O)cc3C(F)(F)F)c2Cl)ccc1CNC[C@@H]1CCC(=O)N1 [B-117] | 64 pM | 813 pM
COc1cc(-c2cccc(-c3cccc4c3CC[C@@H]4Oc3nc(OC)c(CN4CCC[C@@]4(C)C(=O)O)cc3C(F)(F)F)c2Cl)ccc1CNC[C@@H]1CCC(=O)N1 [B-118] | 64 pM | 988 pM

Structure (SMILES) | IC50 (PD-1/PD-L1) | AC50 (PD-L1)
COc1nc(-c2cccc(-c3cccc4c3CC[C@@H]4Oc3nc(OC)c(C(C)N4CC(C(=O)O)C4)cc3C(F)(F)F)c2Cl)ccc1CNC[C@@H]1CCC(=O)N1 (some centres unmarked) [B-119] | 64 pM | 24500 pM
COc1nc(-c2cccc(-c3cccc4c3CC[C@@H]4Oc3nc(OC)c(C(C)NCCC(=O)O)cc3C(F)(F)F)c2Cl)ccc1CNC[C@@H]1CCC(=O)N1 (some centres unmarked) [B-120] | 64 pM | 18200 pM
COc1cc(-c2cccc(-c3cccc4c3CC[C@@H]4Oc3nc(OC)c(CNC(C)(C)C(=O)O)cc3C(F)(F)F)c2Cl)ccc1CNC[C@@H]1CCC(=O)N1 [B-121] | 64 pM | 1620 pM
COc1cc(-c2cccc(-c3cccc4c3CC[C@@H]4Oc3nc(OC)c(CNC4(C(=O)O)CC4)cc3C(F)(F)F)c2Cl)ccc1CNC[C@@H]1CCC(=O)N1 [B-122] | 64 pM | 2650 pM
COc1nc(O[C@H]2CCc3c(-c4cccc(-c5cc(C)c(CN6CC(C(=O)O)C7(CC7)C6)c(OC)n5)c4Cl)cccc32)c(Cl)cc1CNC[C@@H]1CCC(=O)N1 (some centres unmarked) [B-123] | 64 pM | 133000 pM
COc1nc(O[C@H]2CCc3c(-c4cccc(-c5cc(C)c(CN6C[C@@H]7[C@H](C6)[C@H]7C(=O)O)c(OC)n5)c4Cl)cccc32)c(Cl)cc1CNC[C@@H]1CCC(=O)N1 [B-124] | 84 pM | 78500 pM
COc1nc(O[C@H]2CCc3c(-c4cccc(-c5ccc(CNC[C@@H]6CCC(=O)N6)c(OCC#N)n5)c4Cl)cccc32)c(C(F)(F)F)cc1CNC1(C(=O)O)CC1 [B-125] | 64 pM | 6790 pM
COc1nc(O[C@H]2CCc3c(-c4cccc(-c5ccc(CNC[C@@H]6CCC(=O)N6)c(OCC#N)n5)c4Cl)cccc32)c(C(F)(F)F)cc1CN1CC2(C(=O)O)CCC1CC2 [B-126] | 64 pM | 3350 pM
COc1nc(O[C@H]2CCc3c(-c4cccc(-c5ccc(CNC[C@@H]6CCC(=O)N6)c(OCC#N)n5)c4Cl)cccc32)c(C(F)(F)F)cc1CN1CC[C@@H](C(=O)O)C1 [B-127] | 64 pM | 5460 pM
COc1cc(-c2cccc(-c3cccc4c3CC[C@@H]4Oc3nc(OC)c(CNC4(C(=O)O)CC4)cc3Cl)c2Cl)cc(F)c1CNC[C@@H]1CCC(=O)N1 [B-128] | 64 pM | 13500 pM
COc1cc(-c2cccc(-c3cccc4c3CC[C@@H]4Oc3nc(OC)c(CN4CC5(C(=O)O)CCC4CC5)cc3Cl)c2Cl)cc(F)c1CNC[C@@H]1CCC(=O)N1 [B-129] | 64 pM | 16500 pM
COc1cc(-c2cccc(-c3cccc4c3CC[C@@H]4Oc3nc(OC)c(CN4CC(C(=O)O)C4)cc3Cl)c2Cl)cc(F)c1CNC[C@@H]1CCC(=O)N1 [B-130] | 64 pM | 4870 pM
COc1cc(-c2cccc(-c3cccc4c3CC[C@@H]4Oc3nc(OC)c(CN4CC[C@@H](C(=O)O)C4)cc3Cl)c2Cl)cc(F)c1CNC[C@@H]1CCC(=O)N1 [B-131] | 64 pM | 10500 pM
COc1nc(O[C@H]2CCc3c(-c4cccc(-c5cc(C)c(CN6C[C@@H]7C[C@]7(C(=O)O)C6)c(OC)n5)c4Cl)cccc32)c(Cl)cc1CNC[C@@H]1CCC(=O)N1 [B-132] | 266 pM | 301000 pM
COc1nc(O[C@H]2CCc3c(-c4cccc(-c5cc(C)c(CN6CC[C@@H](C(=O)O)C6)c(OC)n5)c4Cl)cccc32)c(Cl)cc1CNC[C@@H]1CCC(=O)N1 [B-133] | 64 pM | 99100 pM
COc1nc(-c2cccc(-c3cccc4c3CC[C@@H]4Oc3nc(OC)c(CN4CC5CCC4(C(=O)O)CC5)cc3C(F)(F)F)c2Cl)ccc1CNC[C@@H]1CCC(=O)N1 [B-134] | 64 pM | 727 pM
COc1nc(-c2cccc(-c3cccc4c3CC[C@@H]4Oc3nc(OC)c(CN4CCCC[C@@]4(C)C(=O)O)cc3C(F)(F)F)c2Cl)ccc1CNC[C@@H]1CCC(=O)N1 [B-135] | 64 pM | 2760 pM
COc1nc(-c2cccc(-c3cccc4c3CC[C@@H]4Oc3nc(OC)c(CN4[C@@H]5C[C@@H]5C[C@H]4C(=O)O)cc3C(F)(F)F)c2Cl)ccc1CNC[C@@H]1CCC(=O)N1 [B-136] | 64 pM | 11000 pM
COc1nc(-c2cccc(-c3cccc4c3CC[C@@H]4Oc3nc(OC)c(CN4[C@H](C(=O)O)C[C@@H]5C[C@@H]54)cc3C(F)(F)F)c2Cl)ccc1CNC[C@@H]1CCC(=O)N1 [B-137] | 64 pM | 6190 pM
COc1nc(-c2cccc(-c3cccc4c3CC[C@@H]4Oc3nc(OC)c(CN4C[C@@H]5C[C@@H]5[C@H]4C(=O)O)cc3C(F)(F)F)c2Cl)ccc1CNC[C@@H]1CCC(=O)N1 [B-138] | 64 pM | 11600 pM

Source: US10774071B2, “PD-1/PD-L1 inhibitors” (Gilead Sciences, Inc., priority 2018, dated 2020)
